40 compounds from patent US20250171459A1, “2-METHYL-4',5'-DIHYDROSPIRO[PIPERIDINE-4,7'-THIENO[2,3-C]PYRAN] DERIVATIVES AS INHIBITORS OF APOL1 AND METHODS OF USING SAME” (Vertex Pharmaceuticals Incorporated, priority 2022, published 2025) can be followed below.

pIC50: −log10 of the molar value. Where only a bound is given, the exact number is not on record here.

The target in the experiment is T1, APOL1 (Homo sapiens, UniProt O14791).
T1 sequence (O14791 1-398 S342G/I384M): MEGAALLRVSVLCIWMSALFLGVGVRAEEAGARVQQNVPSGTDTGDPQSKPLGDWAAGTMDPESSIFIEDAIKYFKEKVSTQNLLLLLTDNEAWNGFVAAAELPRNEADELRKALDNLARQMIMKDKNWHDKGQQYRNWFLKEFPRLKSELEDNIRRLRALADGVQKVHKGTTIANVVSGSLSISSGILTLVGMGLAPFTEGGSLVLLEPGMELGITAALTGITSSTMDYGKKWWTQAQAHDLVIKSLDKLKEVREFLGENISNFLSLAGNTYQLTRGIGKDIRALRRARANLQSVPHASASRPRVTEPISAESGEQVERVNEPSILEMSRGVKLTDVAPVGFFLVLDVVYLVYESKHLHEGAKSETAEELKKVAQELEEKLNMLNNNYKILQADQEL
Description: MultiTox-Fluor Multiplex Cytotoxicity Assay in tet-inducible APOL1 T-REx-HEK293 cells (cell rescue, ratio of dead to live cells). The experiment is classed as cell-based. The following applies: tet-inducible transgenic APOL1 T-REx-HEK293 cell lines, 50 ng/mL tet, 24 hours; read-out: IP50 (i.e., IC50 for cell proliferation). In outline:
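T-REx-HEK293 cells with tet-inducible APOL1 were treated with compound (10 μM top, 10-point 3-fold dilution, duplicate) plus 50 ng/mL tetracycline for 24 h at 37° C, in DMEM with 2% tet-free FBS. MultiTox-Fluor protease signals gave a dead/live ratio, normalized to no tet (100% viability) and tet alone (0%).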

On to `C[C@H]1C[C@@]2(CCN1CC1CCN(S(C)(=O)=O)CC1)OCCc1c2sc(Cl)c1CO` [Compound 748], for which the pIC50 was 6.30 to 7.00.
For `C[C@H]1C[C@@]2(CCN1Cc1cnn(CCS(C)(=O)=O)c1)OCCc1c2sc(Cl)c1CO` [Compound 754] the value was greater than 7.00.
Consider `C[C@H]1C[C@@]2(CCN1Cc1ccc(F)cc1)OCCc1c2sc(Cl)c1CO` [Compound 755], for which the pIC50 is 6.30 to 7.00.
For `C[C@H]1C[C@@]2(CCN1Cc1cccc(F)c1)OCCc1c2sc(Cl)c1CO` [Compound 756] the value was 6.30 to 7.00; for `C[C@H]1C[C@@]2(CCN1Cc1cccnc1)OCCc1c2sc(Cl)c1CO` [Compound 757], greater than 7.00.
With `C[C@H]1C[C@@]2(CCN1Cc1ccccn1)OCCc1c2sc(Cl)c1CO` [Compound 758], the pIC50 is 6.00 to 6.30.
For `CC(C)Cn1cc(CN2CC[C@]3(C[C@@H]2C)OCCc2c3sc(Cl)c2CO)cn1` [Compound 759, [(2′S, 7R)-2-chloro-1′-[(1-isobutylpyrazol-4-yl)methyl]-2′-methyl-spiro[4,5-dihydrothieno[2,3-c]pyran-7,4′-piperidine]-3-yl]methanol], the pIC50 is 6.30 to 7.00.
The value for `CCn1cc(CN2CC[C@]3(C[C@@H]2C)OCCc2c3sc(Cl)c2CO)cn1` [Compound 760] was 6.30 to 7.00; that for `C[C@H]1C[C@@]2(CCN1Cc1cnn(CC3CCOCC3)c1)OCCc1c2sc(Cl)c1CO` [Compound 761] was 6.30 to 7.00; that for `COCc1c(Cl)sc2c1CCO[C@@]21CCN(Cc2cnn(CCS(C)(=O)=O)c2)[C@@H](C)C1` [Compound 762, (2′S, 7R)-2-chloro-3-(methoxymethyl)-2′-methyl-1′-[[1-(2-methylsulfonylethyl)pyrazol-4-yl]methyl]spiro[4,5-dihydrothieno[2,3-c]pyran-7,4′-piperidine]] was greater than 7.00.
The value for `COCc1c(C(F)F)sc2c1CCO[C@@]21CCN(Cc2cnn(CCS(C)(=O)=O)c2)[C@@H](C)C1` [Compound 763, (2′S, 7R)-2-(difluoromethyl)-3-(methoxymethyl)-2′-methyl-1′-[[1-(2-methylsulfonylethyl)pyrazol-4-yl]methyl]spiro[4,5-dihydrothieno[2,3-c]pyran-7,4′-piperidine]] was greater than 7.00; that for `C[C@H]1C[C@@]2(CCN1Cc1cnn(CCS(C)(=O)=O)c1)OCCc1c2sc(C(F)F)c1CO` [Compound 764, [(2′S, 7R)-2-(difluoromethyl)-2′-methyl-1′-[[1-(2-methylsulfonylethyl)pyrazol-4-yl]methyl]spiro[4,5-dihydrothieno[2,3-c]pyran-7,4′-piperidine]-3-yl]methanol] was greater than 7.00; that for `Cc1sc2c(c1CO)CCO[C@@]21CCN(Cc2cnn(CCS(C)(=O)=O)c2)[C@@H](C)C1` [Compound 765, [(2′S, 7R)-2,2′-dimethyl-1′-[[1-(2-methylsulfonylethyl)pyrazol-4-yl]methyl]spiro[4,5-dihydrothieno[2,3-c]pyran-7,4′-piperidine]-3-yl]methanol] was greater than 7.00.
The value for `C[C@H]1C[C@@]2(CCN1Cc1cccc(Cl)c1O)OC[C@H](O)c1cc(Cl)sc12` [Compound 766, (2′S,4R,7R)-2-chloro-1′-[(3-chloro-2-hydroxy-phenyl)methyl]-2′-methyl-spiro[4,5-dihydrothieno[2,3-c]pyran-7,4′-piperidine]-4-ol] was 6.00 to 6.30; that for `C[C@H]1C[C@@]2(CCN1Cc1cnn(CCS(C)(=O)=O)c1)OCC(O)c1cc(Cl)sc12` (stereo partly drawn) [Compound 767, (2′S,7R)-2-chloro-2′-methyl-1′-[[1-(2-methylsulfonylethyl)pyrazol-4-yl]methyl]spiro[4,5-dihydrothieno[2,3-c]pyran-7,4′-piperidine]-4-ol] was greater than 7.00.
Take `Cc1ncccc1CN1CC[C@]2(C[C@@H]1C)OC[C@H](O)c1cc(Cl)sc12` [Compound 770]: the pIC50 was 6.30 to 7.00.
On to `C[C@H]1C[C@@]2(CCN1Cc1cccc(OCC(N)=O)c1)OC[C@H](O)c1cc(Cl)sc12` [Compound 771], for which the pIC50 is 6.30 to 7.00.
`COc1ccc(CN2CC[C@]3(C[C@@H]2C)OC[C@H](O)c2cc(Cl)sc23)cc1OCC(N)=O` [Compound 772]: the pIC50 is greater than 7.00.
For the compound `COc1cc(OCC(N)=O)ccc1CN1CC[C@]2(C[C@@H]1C)OC[C@H](O)c1cc(Cl)sc12` [Compound 773], the pIC50 is greater than 7.00.
For `C[C@H]1C[C@@]2(CCN1Cc1cc(F)cc(F)c1O)OC[C@H](O)c1cc(Cl)sc12` [Compound 774] the value was 6.00 to 6.30; for `C[C@H]1C[C@@]2(CCN1Cc1ccc(OCCO)cc1)OC[C@H](O)c1cc(Cl)sc12` [Compound 775], greater than 7.00.
The value for `COc1cc(CN2CC[C@]3(C[C@@H]2C)OC[C@H](O)c2cc(Cl)sc23)ccc1OCC(N)=O` [Compound 776] was greater than 7.00; that for `C[C@H]1C[C@@]2(CCN1Cc1ccc(N3CCCC3=O)cc1)OC[C@H](O)c1cc(Cl)sc12` [Compound 777] was greater than 7.00; that for `C[C@H]1C[C@@]2(CCN1Cc1cnccn1)OC[C@H](O)c1cc(Cl)sc12` [Compound 778] was 6.00 to 6.30.
The value for `C[C@H]1C[C@@]2(CCN1CCC1CCOCC1)OC[C@H](O)c1cc(Cl)sc12` [Compound 779] was 6.00 to 6.30; that for `C[C@H]1C[C@@]2(CCN1Cc1ccc(NS(C)(=O)=O)cc1)OC[C@H](O)c1cc(Cl)sc12` [Compound 780] was greater than 7.00.
`Cc1cc(CN2CC[C@]3(C[C@@H]2C)OC[C@H](O)c2cc(Cl)sc23)nn1C` [Compound 781]: the pIC50 was 6.00 to 6.30.
For `COc1cccc(CN2CC[C@]3(C[C@@H]2C)OC[C@H](O)c2cc(Cl)sc23)n1` [Compound 782] the value was 6.00 to 6.30; for `COc1cnc(CN2CC[C@]3(C[C@@H]2C)OC[C@H](O)c2cc(Cl)sc23)cn1` [Compound 783], 6.30 to 7.00.
The value for `C[C@H]1C[C@@]2(CCN1Cc1cncc(F)c1)OC[C@H](O)c1cc(Cl)sc12` [Compound 784] was 6.30 to 7.00; that for `CC(O)CCN1CC[C@]2(C[C@@H]1C)OC[C@H](O)c1cc(Cl)sc12` (stereo partly shown) [Compound 785] was 6.00 to 6.30; that for `C[C@H]1C[C@@]2(CCN1Cc1cn3c(n1)CCC3)OC[C@H](O)c1cc(Cl)sc12` [Compound 786] was 6.00 to 6.30.
The value for `C[C@H]1C[C@@]2(CCN1Cc1ccnn1C)OC[C@H](O)c1cc(Cl)sc12` [Compound 787] was 6.00 to 6.30; that for `Cc1ccc(CN2CC[C@]3(C[C@@H]2C)OC[C@H](O)c2cc(Cl)sc23)c(C)n1` [Compound 788] was 6.30 to 7.00; that for `C[C@H]1C[C@@]2(CCN1CC1CCOCC1)OC[C@H](O)c1cc(Cl)sc12` [Compound 789] was 6.00 to 6.30.
`C[C@H]1C[C@@]2(CCN1Cc1cn(-c3ncccn3)cn1)OC[C@H](O)c1cc(Cl)sc12` [Compound 790]: the pIC50 was 6.30 to 7.00.
As for `C[C@H]1C[C@@]2(CCN1Cc1ccc(O)nc1)OC[C@H](O)c1cc(Cl)sc12` [Compound 791], the pIC50 was greater than 7.00.
For `C[C@H]1C[C@@]2(CCN1Cc1ccc(F)cn1)OC[C@H](O)c1cc(Cl)sc12` [Compound 792], the pIC50 was 6.30 to 7.00.
The value for `Cc1ncc(CN2CC[C@]3(C[C@@H]2C)OC[C@H](O)c2cc(Cl)sc23)cn1` [Compound 793] was 6.30 to 7.00.
For `C[C@H]1C[C@@]2(CCN1CC1CCN(S(C)(=O)=O)CC1)OC[C@H](O)c1cc(Cl)sc12` [Compound 796] the value was 6.30 to 7.00.
